Consider ten compounds from US20250074891A1 (Anaxis Pharma Pty Ltd., priority 2021, published 2025).

The subject of assay [1] is U937 cells. Nature of the assay: Counter screen: cell viability without TSQ cocktail (off-target effect). Set-up: species or system human. Particulars: Homo sapiens, U-937, Table 38, read-out: Off-target effect (IC50 cell-based assay). Here is the method: Counter screen: In parallel, all compounds were tested for their ability to affect cell viability. The same U937 cells were treated with compound in DMSO without the TSQ cocktail. This counter screen enabled evaluation of off-target effects. In this case, cell viability was measured by CelltiterGlo.

Assay [2] relates to U937 human histiocytic leukemia cell line. The assay can be described thus: Cellular assay: inhibition of TSQ induced necroptosis (CellTitre-Glo). Particulars: Homo sapiens, U-937; U937 cells, TSQ cocktail, 48 hours, Table 38; read-out: Inhibition of TSQ-induced necroptosis (IC50 cell-based assay). Here is the method: […] ASSAY: Screening compounds for inhibition of TSQ induced necroptosis, 384 well plate format.
Cell Line ID: U937 human histiocytic leukemia cell line.
Cell Concentration (cells/well): Final cell density is 20,000 cells per well.
Cell growth medium: HT-RPMI medium+7.4% Fetal Bovine Serum (FBS). Cells are cultured in Corning 150 cm^z tissue culture flasks with vented caps at 37° C./5% CO2.
Incubation: Plates were incubated at 37° C./5% CO2 in a humidified incubator for 48 hours following addition of compounds and death stimuli (TSQ cocktail).
Compound concentration: 36 μM starting concentration, 1:3 dilution, 10 point
DMSO final concentration (% v/v): 0.3%.
Compounds in TSQ cocktail (T: TNF; S: Smac mimetic; Q: Q-VD-OPh) and their final concentrations: • hTNF-Fc (100 ng/ml)—produced by standard procedures as shown in Bossen et al., J Biol Chem, 2006, 281(20), 13964-13971. • Compound A (500 nM)—Smac mimetic, Tetralogic and SYNthesis med chem • Q-VD-OPh (10 μM)—MP Biomedicals
The cellular assay was carried out according to the following steps: • 1. Each well was prepared by sequential addition of: • a. DMSO (control; columns 1-2 and 23-24) or compound in DMSO—addition was performed using acoustic transfer of nl volumes of stock compound to give final test concentrations of 36, 12, 4, 1.3, 0.44, 0.148, 0.049, 0.016, 0.005 and 0.002 μM. All wells were backfilled with DMSO to a final total volume in the well of 100 nl. • b. Following compound/DMSO addition in step (a), 40 μL of cell suspension (5×10^5 cells/mL) was added to provide a final cell concentration of 20,000 cells per well, and • c. Following cell addition in step (b), 10 μL of 5×TSQ cocktail (except to positive controls; […]) was added to each well. • 2. After 48 hours, plate was removed from the 37° C. incubator and equilibrated to room temperature for 45 minutes. • 3. 15 μL of room temperature CellTitre-Glo2™ (Promega™) was added to each well. • 4. Shook plates for 2 minutes (˜600 rpm) and incubated at room temperature for 15 minutes to allow signal to stabilise. • 5. Read luminescence readout on a plate reader.
Percent viability was calculated for each compound according to equation (2):
[formula] • wherein • RawData is the readout of any cell containing a compound of the invention • TA is the total activity provided by the luminescence readout from DMSO only wells (columns 2 and 24)=100% viability • NSA is the non-specific activity provided by DMSO+TSQ wells (columns 1 and 23)=0% viability
Curve fitting: 10-point titration curves are fitted with the 4-parameter logistic nonlinear regression model and the IC50 reported is the inflection point of the curve.
Analysis: Data was loaded into Dotmatics™ and visualised using the Tibco® Spotfire™ software. 10 points titration curves were fitted with the 4-parameter logistic nonlinear regression model and the IC50 reported reflect the inflection point of the curve for curve fitting.
Assay involving the TSQ cocktail (T: TNF; S: Smac mimetic; Q: Q-VD-OPh): TSQ treatment ensures that cells specifically undergo necroptotic cell death. TNF activates the TNF receptor, Smac mimetic directs the signal away from proinflammatory signaling and toward the RIP1/RIP3-mediated cell death pathways, and Q-VD-OPh ensures that the apoptotic response is blocked leaving only the programmed necrosis response. The compounds' activity (solution in DMSO) tested in this TSQ-induced assay was evaluated by determining the number of viable cells in culture by measuring the amount of ATP present as measured by CelltiterGlo.

The target in assay [3] is MLKL (full length) (Homo sapiens (Human), UniProt Q8NB16). The assay can be described thus: KINOMEscan binding assay, MLKL (full length). The following applies: Table 36. On the procedure: Kinase assays. For most assays, kinase-tagged T7 phage strains were grown in parallel in 24-well blocks in an E. coli host derived from the BL21 strain. E. coli were grown to log-phase and infected with T7 phage from a frozen stock (multiplicity of infection=0.4) and incubated with shaking at 32° C. until lysis (90-150 minutes).
Sequence of MLKL (full length) (Q8NB16 whole entry): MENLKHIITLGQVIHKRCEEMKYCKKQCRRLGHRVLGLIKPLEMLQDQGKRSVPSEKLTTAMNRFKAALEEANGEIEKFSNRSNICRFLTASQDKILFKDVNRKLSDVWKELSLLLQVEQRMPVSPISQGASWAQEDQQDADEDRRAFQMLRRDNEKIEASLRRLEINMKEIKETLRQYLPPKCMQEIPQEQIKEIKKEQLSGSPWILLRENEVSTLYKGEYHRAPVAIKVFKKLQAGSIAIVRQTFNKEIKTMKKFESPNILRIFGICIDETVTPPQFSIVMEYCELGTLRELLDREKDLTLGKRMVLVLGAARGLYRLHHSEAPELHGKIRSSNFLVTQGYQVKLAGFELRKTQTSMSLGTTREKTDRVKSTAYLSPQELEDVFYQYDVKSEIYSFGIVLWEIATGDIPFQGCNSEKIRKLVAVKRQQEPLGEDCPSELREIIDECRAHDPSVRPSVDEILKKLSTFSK
The Hill Slope was set to −1.

In general, IC50 refers to the midpoint of a concentration-inhibition curve. On to `CCS(=O)(=O)Nc1ccc(-c2n[nH]c(Nc3ccnc(OCCOCCOCCOCCNC(=O)COc4cccc5c4C(=O)N(C4CCC(=O)NC4=O)C5=O)c3)c2C(N)=O)cc1` (stereo not shown) [Compound 1002, 5-({2-[2-(2-{2-[2-(2-{[2-(2,6-dioxopiperidin-3-yl)-1,3-dioxo-2,3-dihydro-1H-isoindol-4-yl]oxy}acetamido)ethoxy]ethoxy}ethoxy)ethoxy]pyridin-4-yl}amino)-3-(4-ethanesulfonamidophenyl)-1H-pyrazole-4-carboxamide], for which the IC50 in assay [1] and in assay [2] was > 10 µM throughout.

For `CCS(=O)(=O)Nc1ccc(-c2n[nH]c(Nc3ccnc(OCCOCCNC(=O)COc4cccc5c4C(=O)N(C4CCC(=O)NC4=O)C5=O)c3)c2C(N)=O)cc1` (stereo not shown) [Compound 1003, 5-((2-(2-(2-(2-((2-(2,6-dioxopiperidin-3-yl)-1,3-dioxoisoindolin-4-yl)oxy)acetamido)ethoxy)ethoxy)pyridin-4-yl)amino)-3-(4-(ethylsulfonamido)phenyl)-1H-pyrazole-4-carboxamide], the IC50 in assay [1] and in assay [2] was > 10 µM throughout.

Consider `CCS(=O)(=O)Nc1ccc(-c2n[nH]c(Nc3ccnc(OCCOCCOCCNC(=O)COc4cccc5c4C(=O)N(C4CCC(=O)NC4=O)C5=O)c3)c2C(N)=O)cc1` (stereo not shown) [Compound 1004, 5-((2-(2-(2-(2-(2-((2-(2,6-dioxopiperidin-3-yl)-1,3-dioxoisoindolin-4-yl)oxy)acetamido)ethoxy)ethoxy)ethoxy)pyridin-4-yl)amino)-3-(4-(ethylsulfonamido)phenyl)-1H-pyrazole-4-carboxamide], for which the 50% inhibitory concentration (IC50) in assay [1] and in assay [2] was > 10 µM in each case.

For orientation: Kd means the equilibrium constant for the complex coming apart. High values mean a looser complex, low ones a tighter complex. For the compound `CCS(=O)(=O)Nc1ccc(-c2n[nH]c(Nc3ccnc(OCCOCCOCCOCCOCCOCC(=O)N[C@H](C(=O)N4C[C@H](O)C[C@H]4C(=O)NCc4ccc(-c5scnc5C)cc4)C(C)(C)C)c3)c2C(N)=O)cc1` [Compound 1008, 3-(4-ethanesulfonamidophenyl)-5-({2-[(1-{[(2S)-1-[(2S,4R)-4-hydroxy-2-({[4-(4-methyl-1,3-thiazol-5-yl)phenyl]methyl}carbamoyl)pyrrolidin-1-yl]-3,3-dimethyl-1-oxobutan-2-yl]carbamoyl}-2,5,8,11,14-pentaoxahexadecan-16-yl)oxy]pyridin-4-yl}amino)-1H-pyrazole-4-carboxamide], the IC50 in assay [1] and in assay [2] was > 10 µM each time. Besides, in assay [3], the Kd was < 0.01 µM.

In the case of `CCS(=O)(=O)Nc1ccc(-c2n[nH]c(Nc3ccnc(OCCOCCOCCOCCOCCOCCOCC(=O)N[C@H](C(=O)N4C[C@H](O)C[C@H]4C(=O)NCc4ccc(-c5scnc5C)cc4)C(C)(C)C)c3)c2C(N)=O)cc1` [Compound 1009, 3-(4-ethanesulfonamidophenyl)-5-({2-[(1-{[(2S)-1-[(2S,4R)-4-hydroxy-2-({[4-(4-methyl-1,3-thiazol-5-yl)phenyl]methyl}carbamoyl)pyrrolidin-1-yl]-3,3-dimethyl-1-oxobutan-2-yl]carbamoyl}-2,5,8,11,14,17-hexaoxanonadecan-19-yl)oxy]pyridin-4-yl}amino)-1H-pyrazole-4-carboxamide], the IC50 in assay [1] and in assay [2] was > 10 µM each time. Besides, the Kd in assay [3] is < 0.01 µM.

Turning to `CCS(=O)(=O)Nc1ccc(-c2n[nH]c(Nc3ccnc(OCCOCC(=O)N[C@H](C(=O)N4C[C@H](O)C[C@H]4C(=O)NCc4ccc(-c5scnc5C)cc4)C(C)(C)C)c3)c2C(N)=O)cc1` [Compound 1010, 3-(4-ethanesulfonamidophenyl)-5-({2-[2-({[(2S)-1-[(2S,4R)-4-hydroxy-2-({[4-(4-methyl-1,3-thiazol-5-yl)phenyl]methyl}carbamoyl)pyrrolidin-1-yl]-3,3-dimethyl-1-oxobutan-2-yl]carbamoyl}methoxy)ethoxy]pyridin-4-yl}amino)-1H-pyrazole-4-carboxamide], the IC50 in assay [1] and in assay [2] was > 10 µM in each case. The compound also displayed a Kd in assay [3] of 0.01 to 1 µM.

Take `Cc1ncsc1-c1ccc(CNC(=O)[C@@H]2C[C@@H](O)CN2C(=O)[C@@H](NC(=O)COCCOc2cc(Nc3[nH]nc(-c4ccc(NS(=O)(=O)CC(F)(F)F)cc4)c3C(N)=O)ccn2)C(C)(C)C)cc1` [Compound 1011, 5-({2-[2-({[(2S)-1-[(2S,4R)-4-hydroxy-2-({[4-(4-methyl-1,3-thiazol-5-yl)phenyl]methyl}carbamoyl)pyrrolidin-1-yl]-3,3-dimethyl-1-oxobutan-2-yl]carbamoyl}methoxy)ethoxy]pyridin-4-yl}amino)-3-[4-(2,2,2-trifluoroethanesulfonamido)phenyl]-1H-pyrazole-4-carboxamide]: the IC50 in assay [1] and in assay [2] was > 10 µM throughout. Besides, the Kd in assay [3] is < 0.01 µM.

`Cc1ncsc1-c1ccc(CNC(=O)[C@@H]2C[C@@H](O)CN2C(=O)[C@@H](NC(=O)COCCOc2cc(Nc3[nH]nc(-c4ccc(NS(=O)(=O)C(F)F)cc4)c3C(N)=O)ccn2)C(C)(C)C)cc1` [Compound 1012, 3-[4-(difluoromethanesulfonamido)phenyl]-5-({2-[2-({[(2S)-1-[(2S,4R)-4-hydroxy-2-({[4-(4-methyl-1,3-thiazol-5-yl)phenyl]methyl}carbamoyl)pyrrolidin-1-yl]-3,3-dimethyl-1-oxobutan-2-yl]carbamoyl}methoxy)ethoxy]pyridin-4-yl}amino)-1H-pyrazole-4-carboxamide]: the IC50 in assay [1] and in assay [2] was > 10 µM throughout. The Kd in assay [3] was < 0.01 µM.

Regarding `Cc1ncsc1-c1ccc(CNC(=O)[C@@H]2C[C@@H](O)CN2C(=O)[C@@H](NC(=O)c2cccc(COc3ccc(Nc4[nH]nc(-c5ccc(NS(=O)(=O)C(F)F)c(O[C@@H](C)c6ccc(F)cc6)c5)c4C(N)=O)nc3)c2)C(C)(C)C)cc1` [Compound 1031, 3-(4-(difluoromethylsulfonamido)-3-((S)-1-(4-fluorophenyl)ethoxy)phenyl)-5-((5-((3-(((S)-1-((2S,4R)-4-hydroxy-2-((4-(4-methylthiazol-5-yl)benzyl)carbamoyl)pyrrolidin-1-yl)-3,3-dimethyl-1-oxobutan-2-yl)carbamoyl)benzyl)oxy)pyridin-2-yl)amino)-1H-pyrazole-4-carboxamide], the values for the IC50 in assay [1] and in assay [2] were 1 to 10 µM and < 1 µM, respectively.

For `Cc1ncsc1-c1ccc(CNC(=O)[C@@H]2C[C@@H](O)CN2C(=O)[C@@H](NC(=O)CCCCCCOc2ccc(Nc3[nH]nc(-c4ccc(NS(=O)(=O)C(F)F)c(O[C@@H](C)c5ccc(F)cc5)c4)c3C(N)=O)nc2)C(C)(C)C)cc1` [Compound 1059, 3-[4-(difluoromethanesulfonamido)-3-[(1S)-1-(4-fluorophenyl)ethoxy]phenyl]-5-({5-[(6-{[(2S)-1-[(2S,4R)-4-hydroxy-2-({[4-(4-methyl-1,3-thiazol-5-yl)phenyl]methyl}carbamoyl)pyrrolidin-1-yl]-3,3-dimethyl-1-oxobutan-2-yl]carbamoyl}hexyl)oxy]pyridin-2-yl}amino)-1H-pyrazole-4-carboxamide], the figures for the IC50 in assay [1] and in assay [2] were 1 to 10 µM and < 1 µM, respectively.
